Measurements taken from PMC8514817, “De Novo Design of Antimicrobial Peptides With a Special Charge Pattern and Their Application in Combating Plant Pathogens” (Frontiers in Plant Science, 2021).
Values after ≈ are worked out from the molar mass of the structure shown. Read-outs that look alike come from different tables or passages of the source. Where a SMILES comes first, the peptide text is derived from it. The star is where a group is joined. Palmitoyl = CCCCCCCCCCCCCCCC(=O)*; Myristoyl = CCCCCCCCCCCCCC(=O)*

Experiments:
[1] = tested on: Botrytis cinerea (Bc); assay: Plant disease response, Bc infection of tomato L390 leaves; type: in vivo, Solanum lycopersicum; settings: crude peptide 16 μg/ml mixed with Bc spores (10^4 spores/ml), 47–70 h post-inoculation, vs water
[2] = tested on: Bc; settings: up to 32 μg/ml; for MIC: spores, 96 h; for MBC/MFC / MFC: spotted on PD plate 24~72 h
[3] = tested on: Rs Pss4; settings: Table 5, minimal medium, crude peptides, up to 32 μg/ml; for MIC: 96 h; for MBC/MFC: spotted on rich agar 48 h
[4] = tested on: Pcc; settings: up to 32 μg/ml
[5] = tested on: Cgl FST02; settings: up to 32 μg/ml; for MIC: spores, 96 h; for MBC/MFC / MFC: spotted on PD plate 24~72 h
[6] = tested on: Ech; settings: up to 32 μg/ml
[7] = tested on: Pectobacterium carotovorum subsp. carotovorum (Pcc); assay: Plant disease response, Pcc infection of tomato L390 leaves; type: in vivo, Solanum lycopersicum; settings: crude peptide 16 μg/ml mixed with Pcc, detached wounded tomato L390 leaves, 16–28 h post-inoculation, vs water
[8] = tested on: Pectobacterium carotovorum subsp. carotovorum (Pcc); assay: Plant disease response, Pcc infection of Arabidopsis Col0 leaves; type: in vivo, Arabidopsis thaliana; settings: crude peptide 16 μg/ml mixed with Pcc, wounded leaves of Arabidopsis Col0, 16–28 h post-inoculation, vs water
[9] = tested on: Rs; type: cell-based, Ralstonia solanacearum; settings: crude peptide, 5 μl of 64 μg/ml in 20 μl, bacteria OD600=0.4 in water, 2 h, confocal microscopy
[10] = tested on: Rs Pss190; settings: Table 5, minimal medium, crude peptides, up to 32 μg/ml; for MIC: 96 h; for MBC/MFC: spotted on rich agar 48 h
[11] = tested on: Eco; type: cell-based, Escherichia coli
[12] = tested on: Botrytis cinerea (Bc); assay: Plant disease response, Bc infection of Arabidopsis Col0 leaves; type: in vivo, Arabidopsis thaliana; settings: crude peptide 16 μg/ml mixed with Bc spores (10^5 spores/ml), Arabidopsis Col0 leaves, 47–70 h post-inoculation, vs water
[13] = tested on: Eco DH5α; settings: 48 h
[14] = tested on: Xev Xvt28; settings: 24 h
[15] = tested on: Eco DH5α; settings: DH5α, 24 h
[16] = Table 5, minimal (CD) medium, crude peptides
[17] = Table 5, minimal medium, crude peptides, 96 h
[18] = Table 5, minimal medium, crude peptides, spotted on rich agar 48 h
[19] = Table 7, rich media, spotted on rich agar 48 h

CCCCCCCCCCCCCC(=O)N[C@@H](Cc1c[nH]c2ccccc12)C(=O)N[C@@H](CCCCN)C(=O)N[C@@H](CCCCN)C(=O)N[C@@H](CC(C)C)C(=O)N[C@@H](CCCCN)C(=O)N[C@@H](CCCCN)C(=O)N[C@@H](CC(C)C)C(=O)N[C@@H](CC(C)C)C(=O)N[C@@H](CCCCN)C(=O)N[C@@H](CCCCN)C(=O)N[C@@H](CC(C)C)C(=O)N[C@@H](CCCCN)C(=O)N[C@@H](CCCCN)C(=O)N[C@@H](CC(C)C)C(N)=O [pepD2M] (Myristoyl-WKKLKKLLKKLKKL-NH2)
development of the lesion caused by Bc, tomato [1]: decreased the development of the lesion | MIC [2, 16]: 16 µg/mL (≈ 7.98 µM) | MBC/MFC [2, 16]: 16 µg/mL (≈ 7.98 µM) | MIC ([2]; Table 6, minimal media): 16 µg/mL (≈ 7.98 µM) | MFC ([2]; Table 6, minimal media): 32 µg/mL (≈ 16 µM) | MIC [3]: 8 µg/mL (≈ 3.99 µM) | MBC/MFC [3]: 8 µg/mL (≈ 3.99 µM) | MIC [4, 17]: 4 µg/mL (≈ 2 µM) | MBC/MFC [4, 18]: 4 µg/mL (≈ 2 µM) | MIC [5, 16]: 8 µg/mL (≈ 3.99 µM) | MBC/MFC [5, 16]: 16 µg/mL (≈ 7.98 µM) | MIC ([5]; Table 6, minimal media): 16 µg/mL (≈ 7.98 µM) | MFC ([5]; Table 6, minimal media): 16 µg/mL (≈ 7.98 µM) | MIC [6, 17]: 4 µg/mL (≈ 2 µM) | MBC/MFC [6, 18]: 8 µg/mL (≈ 3.99 µM) | size of disease lesions caused by Pcc, tomato [7]: significantly reduced the sizes of the disease lesions | size of disease lesions caused by Pcc, Arabidopsis [8]: significantly reduced the sizes of the disease lesions | membranolytic effect (SYTOX Green staining) [9]: significant membranolytic effect | MIC [10]: 8 µg/mL (≈ 3.99 µM) | MBC/MFC [10]: 8 µg/mL (≈ 3.99 µM) | membranolytic effect (SYTOX Green staining) [11]: significant membranolytic effect | development of the lesion caused by Bc, Arabidopsis [12]: decreased the development of the lesion

CCCCCCCCCCCCCCCC(=O)N[C@@H](Cc1c[nH]c2ccccc12)C(=O)N[C@@H](CCCCN)C(=O)N[C@@H](CCCCN)C(=O)N[C@@H](CC(C)C)C(=O)N[C@@H](CCCCN)C(=O)N[C@@H](CCCCN)C(=O)N[C@@H](CC(C)C)C(=O)N[C@@H](CC(C)C)C(=O)N[C@@H](CCCCN)C(=O)N[C@@H](CCCCN)C(=O)N[C@@H](CC(C)C)C(=O)N[C@@H](CCCCN)C(=O)N[C@@H](CCCCN)C(=O)N[C@@H](CC(C)C)C(N)=O [pepD2P] (Palmitoyl-WKKLKKLLKKLKKL-NH2)
MIC ([2]; Table 6, minimal media): 8 µg/mL (≈ 3.94 µM) | MFC ([2]; Table 6, minimal media): 8 µg/mL (≈ 3.94 µM) | MIC ([5]; Table 6, minimal media): 8 µg/mL (≈ 3.94 µM) | MFC ([5]; Table 6, minimal media): 8 µg/mL (≈ 3.94 µM)

CCCCCCCCCCCCCC(=O)N[C@@H](Cc1c[nH]c2ccccc12)C(=O)N[C@@H](CCCCN)C(=O)N[C@@H](CCCCN)C(=O)N[C@@H](CC(C)C)C(=O)N[C@@H](CCCCN)C(=O)N[C@@H](CCCCN)C(=O)N[C@@H](CC(C)C)C(=O)N[C@@H](CC(C)C)C(=O)N[C@@H](CCCCN)C(=O)N[C@@H](CCCCN)C(=O)N[C@@H](CC(C)C)C(N)=O [pepD3M] (Myristoyl-WKKLKKLLKKL-NH2)
development of the lesion caused by Bc, tomato [1]: decreased the development of the lesion | MIC [2, 16]: 4 µg/mL (≈ 2.45 µM) | MBC/MFC [2, 16]: 8 µg/mL (≈ 4.89 µM) | MIC [3]: 8 µg/mL (≈ 4.89 µM) | MBC/MFC [3]: 16 µg/mL (≈ 9.78 µM) | MIC [4, 17]: 4 µg/mL (≈ 2.45 µM) | MBC/MFC [4, 18]: 4 µg/mL (≈ 2.45 µM) | MIC [5, 16]: 8 µg/mL (≈ 4.89 µM) | MBC/MFC [5, 16]: 8 µg/mL (≈ 4.89 µM) | MIC [6, 17]: 4 µg/mL (≈ 2.45 µM) | MBC/MFC [6, 18]: 8 µg/mL (≈ 4.89 µM) | size of disease lesions caused by Pcc, tomato [7]: significantly reduced the sizes of the disease lesions | size of disease lesions caused by Pcc, Arabidopsis [8]: significantly reduced the sizes of the disease lesions | MIC [10]: 16 µg/mL (≈ 9.78 µM) | MBC/MFC [10]: 16 µg/mL (≈ 9.78 µM) | development of the lesion caused by Bc, Arabidopsis [12]: decreased the development of the lesion

Ac-WKKIKKIIKKIKKI-NH2 [pepI2]
MBC [13]: 4 µg/mL | MIC [13]: 4 µg/mL

Ac-WKKVKKVVKKVKKV-NH2 [pepV2]
MBC [13]: 32 µg/mL | MIC [13]: 32 µg/mL | MIC ([4]; Table 7, rich media, 48 h): – (“–” indicates that no antimicrobial activity was detected in rich media at the highest peptide concentration (32μg/ml) that was tested in this study.) | MBC [4, 19]: – (“–” indicates that no antimicrobial activity was detected in rich media at the highest peptide concentration (32μg/ml) that was tested in this study.) | MIC ([6]; Table 7, rich media, 48 h): – (“–” indicates that no antimicrobial activity was detected in rich media at the highest peptide concentration (32μg/ml) that was tested in this study.) | MBC [6, 19]: – (“–” indicates that no antimicrobial activity was detected in rich media at the highest peptide concentration (32μg/ml) that was tested in this study.)

Ac-WKLKLKLKLKLKLKLKLK-NH2 [pepE]
IC50 [14]: 2 µg/mL | IC50 [15]: 10 µg/mL

Ac-WKLLKKLLKKLKKLLKKL-NH2 [pepC]
IC50 [14]: 10 µg/mL | IC50 [15]: 10 µg/mL

Stearyl-WKKLKKLLKKLKKL-NH2 [pepD2S]
MIC ([2]; Table 6, minimal media): – (“–” indicates that no antimicrobial activity was detected in minimal media at the highest peptide concentration (32μg/ml) that was tested in this study.) | MFC ([2]; Table 6, minimal media): – (“–” indicates that no antimicrobial activity was detected in minimal media at the highest peptide concentration (32μg/ml) that was tested in this study.) | MIC ([5]; Table 6, minimal media): – (“–” indicates that no antimicrobial activity was detected in minimal media at the highest peptide concentration (32μg/ml) that was tested in this study.) | MFC ([5]; Table 6, minimal media): – (“–” indicates that no antimicrobial activity was detected in minimal media at the highest peptide concentration (32μg/ml) that was tested in this study.)
